Laboratory results as given in publication PMC7123434, “Development of High-Throughput Fluorescent-Based Screens to Accelerate Discovery of P2X Inhibitors from Animal Venoms” (Journal of Natural Products, 2019).

Key:
Format in all cases: cell-based
hP2X4 [1] = biological target: T1, hP2X4 (Homo sapiens, UniProt Q99571); assay: Fura-2 AM [Ca2+]i assay on 1321N1-hP2X4 cells; details: used for fitting; Figure S1 A,B: 1321N1-hP2X4 and HEK293-hP2X4; read-out: ATP EC50
T1 construct: expressed in transfected cells
T1 sequence (Q99571 1-388): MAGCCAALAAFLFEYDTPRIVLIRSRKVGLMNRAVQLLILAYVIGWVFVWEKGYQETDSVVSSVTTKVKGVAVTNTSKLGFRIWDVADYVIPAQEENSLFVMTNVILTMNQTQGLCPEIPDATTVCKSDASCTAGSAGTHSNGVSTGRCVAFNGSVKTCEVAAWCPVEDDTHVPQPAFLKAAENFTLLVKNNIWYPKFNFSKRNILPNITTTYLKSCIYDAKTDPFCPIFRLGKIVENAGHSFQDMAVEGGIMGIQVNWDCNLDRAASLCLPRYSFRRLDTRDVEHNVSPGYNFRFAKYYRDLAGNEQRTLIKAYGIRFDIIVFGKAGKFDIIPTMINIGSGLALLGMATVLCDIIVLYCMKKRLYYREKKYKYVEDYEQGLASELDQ
Description: One day prior to measurements, 1321N1-hP2X4 cells were plated onto poly-D-lysine-coated 96-well plates at 2 × 10^4 cells/well. After 24 h, the cells were loaded for 1 h at 37 °C with 2 μM Fura-2 AM in Hank’s Balanced Salt Solution (HBSS, Gibco). The Fura-2 loading buffer dye was removed; then the cells were incubated in 80 μL of Etotal buffer, containing (in mM) 145 NaCl, 5 KCl, 1 MgCl2, 2 CaCl2, 13 D-glucose, 10 HEPES; pH 7.33. […] The injection volume was 10 μL with 150 μL pipette height and rate of 4 (∼62 μL/s). The run time was 300 s with 3.5 s intervals and 3 reads/well. The change in [Ca^2+]i concentration was calculated as the ratio of Fura-2 intensities at 520 emission from excitation at 340 and 380 nm (F ratio).

hP2X7 = biological target: T2, hP2X7 (Homo sapiens, UniProt Q99572); assay: YOPRO-1 dye uptake assay on HEK293-hP2X7 cells; details: used for fitting; Figure S1C: HEK293-hP2X7; read-out: ATP EC50
T2 construct: expressed in transfected cells
T2 sequence (Q99572 1-595): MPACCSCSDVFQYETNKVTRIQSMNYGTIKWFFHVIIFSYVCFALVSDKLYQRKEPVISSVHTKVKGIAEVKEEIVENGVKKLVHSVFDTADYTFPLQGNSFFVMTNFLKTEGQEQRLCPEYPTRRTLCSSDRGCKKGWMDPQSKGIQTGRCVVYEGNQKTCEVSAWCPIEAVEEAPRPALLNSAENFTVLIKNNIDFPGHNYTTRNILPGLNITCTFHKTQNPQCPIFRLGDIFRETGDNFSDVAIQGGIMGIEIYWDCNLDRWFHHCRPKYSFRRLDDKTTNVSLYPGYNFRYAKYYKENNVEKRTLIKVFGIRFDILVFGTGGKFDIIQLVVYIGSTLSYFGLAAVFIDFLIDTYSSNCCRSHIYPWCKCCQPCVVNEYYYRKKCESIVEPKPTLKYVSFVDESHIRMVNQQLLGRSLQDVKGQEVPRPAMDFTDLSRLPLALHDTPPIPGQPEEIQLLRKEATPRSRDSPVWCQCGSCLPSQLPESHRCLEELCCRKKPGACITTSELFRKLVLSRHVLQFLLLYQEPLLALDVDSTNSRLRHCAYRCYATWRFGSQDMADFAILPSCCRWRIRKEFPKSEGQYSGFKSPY
Description: (§1) This method was adapted and further optimized from Patrice et al.[50] One day prior to measurements, HEK293-hP2X4 and HEK293-hP2X7 cells were plated on poly-D-lysine-coated 96-well plates at 2 × 10^4 cells/well. After 24 h, the culture media was aspirated, and 80 μL of YOPRO-1 assay buffer (145 mM NaCl, 5 mM KCl, 0.1 mM CaCl2, 13 mM D-glucose, 10 mM HEPES; pH 7.35) with 2 μM YOPRO-1 was applied. […] The injection volume was 10 μL with a 150 μL pipet height and rate of 4 (∼62 μL/s). The run time was 300 s with a 3.9 s interval, 6 reads/well, and 77 reads in total. Measurement parameters were as follows: bottom reading, excitation wavelength (490 nm), emission wavelength (520 nm).

hP2X4 [2] = biological target: T1, hP2X4; assay: YOPRO-1 dye uptake assay on HEK293-hP2X4 cells
Description: as §1

| Compound | EC50 (hP2X4 [1]) [µM] | EC50 (hP2X7) [µM] | inhibition at 10 µM (hP2X4 [2]; 10 μM, hP2X4, cell line not stated) [%] | Normalised Mean (hP2X4 [2]; AUC signal normalised to positive control (10 µM ATP) = 1.0, HEK293-hP2X4) |
| --- | --- | --- | --- | --- |
| Nc1ncnc2c1ncn2[C@@H]1O[C@H](COP(=O)(O)OP(=O)(O)OP(=O)(O)O)[C@@H](O)[C@H]1O [ATP] | 1.6 | 300 |  |  |
| CC(C)c1cc(Br)c(NC(=O)Nc2cccnc2)c(Br)c1 [BX430] |  |  | 75 | 1.05 |
